Results as given in US12168650B2, “Crystalline forms of 3-(5-(2-hydroxy-2-methylpropoxy)-6-methylpyrazin-2-yl)-1H-indole-7-carbonitrile” (NIDO BIOSCIENCES, INC., priority 2022, dated 2024).
In brackets after ≈: the same amount, converted by molar mass. Where two headings read alike, the source gives them in different places.

How the values were obtained:
[1] = Solubility in solvents and mixture solvents; type: physicochemical
From the text: As there may be potential Form A/H (Anhydrate) or Form I (THF solvate) in water or THF system according to the polymorph screening report, the use of water and THF were avoided in following study. […]

[2] = Bulk stability of Form C over 1 week; type: physicochemical; settings: for Bulk (XRPD) / Color / Purity, Bulk (HPLC): Solid state
Description: Bulk stability of Form C was evaluated at 25° C./92% RH in an open container, at 40° C./75% RH in an open container and at 60° C. in a tight container over 1 week.

[3] = 25° C./92% RH, open container, 1 week
[4] = 40° C./75% RH, open container, 1 week
[5] = 60° C., tight container, 1 week

For `Cc1nc(-c2c[nH]c3c(C#N)cccc23)cnc1OCC(C)(C)O` [Form C, 3-(5-(2-hydroxy-2-methylpropoxy)-6-methylpyrazin-2-yl)-1H-indole-7-carbonitrile], the XRPD ([1]; 2-ME-THF/n-hep mixtures, 50 ° C. (printed at 4/0.5, probably merged for all rows)) was “Form C”, the Solubility ([1]; 2-MeTHF, 25° C.) was 117 mg/mL solvent and the Solubility ([1]; 2-MeTHF, 50° C.) was 154 mg/mL solvent. The Solubility ([1]; 2-MeTHF/n-heptane 1/1 (v/v), organic solvent or mixture, thermodynamic from solid, 2-ME-THF/n-hep = 1/1 (v/v), 25 ° C., read-out: Solubility) was 13000 µg/mL (≈ 40.3 mM), the Solubility ([1]; 2-MeTHF/n-heptane 1/2 (v/v), organic solvent or mixture, thermodynamic from solid, 2-ME-THF/n-hep = 1/2 (v/v), 25 ° C., read-out: Solubility) was roughly 4000 µg/mL (≈ 12.4 mM) and the Solubility ([1]; 2-MeTHF/n-heptane 1/3 (v/v), organic solvent or mixture, thermodynamic from solid, 2-ME-THF/n-hep = 1/3 (v/v), 25 ° C., read-out: Solubility) was roughly 2000 µg/mL (≈ 6.2 mM). For the same compound, the Solubility ([1]; 2-MeTHF/n-heptane 4/0.5 (v/v), organic solvent or mixture, thermodynamic from solid, 2-ME-THF/n-hep = 4/0.5 (v/v), 50 ° C., read-out: Solubility) was 122000 µg/mL (≈ 378 mM), the Solubility ([1]; 2-MeTHF/n-heptane 4/1 (v/v), organic solvent or mixture, thermodynamic from solid, 2-ME-THF/n-hep = 4/1 (v/v), 50 ° C., read-out: Solubility) was 90000 µg/mL (≈ 279 mM) and the Solubility ([1]; 2-MeTHF/n-heptane 4/2 (v/v), organic solvent or mixture, thermodynamic from solid, 2-ME-THF/n-hep = 4/2 (v/v), 50 ° C., read-out: Solubility) was 49000 µg/mL (≈ 152 mM). For the same compound, the Solubility ([1]; 2-MeTHF/n-heptane 4/4 (v/v), organic solvent or mixture, thermodynamic from solid, 2-ME-THF/n-hep = 4/4 (v/v), 50 ° C., read-out: Solubility) was 21000 µg/mL (≈ 65.1 mM), the Solubility ([1]; 2-MeTHF/n-heptane 4/8 (v/v), organic solvent or mixture, thermodynamic from solid, 2-ME-THF/n-hep = 4/8 (v/v), 50 ° C., read-out: Solubility) was 10000 µg/mL (≈ 31 mM) and the Solubility ([1]; 2-MeTHF/n-heptane 4/12 (v/v), organic solvent or mixture, thermodynamic from solid, 2-ME-THF/n-hep = 4/12 (v/v), 50 ° C., read-out: Solubility) was 5000 µg/mL (≈ 15.5 mM). It also gave a Solubility ([1]; Acetone, 25° C.) of 66 mg/mL solvent, a Solubility ([1]; Acetone, 50° C.) of 122 mg/mL solvent and a Solubility ([1]; EA, 25° C.) of 32 mg/mL solvent. For the same compound, the Solubility ([1]; EA, 50° C.) was 58 mg/mL solvent, the XRPD ([1]; EA, 50° C. (cell printed at this row, probably merged downwards)) was “Form C” and the Solubility ([1]; Ethanol, 25° C.) was 27 mg/mL solvent. It also gave a Solubility ([1]; Ethanol, 50° C.) of 64 mg/mL solvent, a Solubility ([1]; Heptane, 25° C.) of roughly 2 mg/mL solvent and a Solubility ([1]; Heptane, 50° C.) of roughly 3 mg/mL solvent. It also gave a Solubility ([1]; IPA, 25° C.) of 14 mg/mL solvent, a Solubility ([1]; IPA, 50° C.) of 29 mg/mL solvent and a Solubility ([1]; MCH, 25° C.) of roughly 3 mg/mL solvent. For the same compound, the Solubility ([1]; MCH, 50° C.) was roughly 3 mg/mL solvent, the Solubility ([1]; MEK, 25° C.) was 63 mg/mL solvent and the Solubility ([1]; MEK, 50° C.) was 110 mg/mL solvent. It also gave a Solubility ([1]; MEK/n-heptane 1/1 (v/v), organic solvent or mixture, thermodynamic from solid, MEK/n-hep = 1/1 (v/v), 25 ° C., read-out: Solubility) of 16000 µg/mL (≈ 49.6 mM), a Solubility ([1]; MEK/n-heptane 1/2 (v/v), organic solvent or mixture, thermodynamic from solid, MEK/n-hep = 1/2 (v/v), 25 ° C., read-out: Solubility) of 6000 µg/mL (≈ 18.6 mM) and a Solubility ([1]; MEK/n-heptane 1/3 (v/v), organic solvent or mixture, thermodynamic from solid, MEK/n-hep = 1/3 (v/v), 25 ° C., read-out: Solubility) of roughly 3000 µg/mL (≈ 9.31 mM). For the same compound, the Solubility ([1]; MIBK, 25° C.) was 21 mg/mL solvent, the Solubility ([1]; MIBK, 50° C.) was 28 mg/mL solvent and the Solubility ([1]; THF, 25° C.) was 247 mg/mL solvent. For the same compound, the Solubility ([1]; THF, 50° C.) was greater than 200 mg/mL solvent, the Solubility ([1]; Toluene, 25° C.) was 5 mg/mL solvent and the Solubility ([1]; Toluene, 50° C.) was 5 mg/mL solvent. The XRPD ([1]; Water, 25° C. (cell printed at this row, probably merged downwards)) was “Form C”, the Solubility ([1]; Water, 25° C., read-out: Solubility) was roughly 1000 µg/mL (≈ 3.1 mM) and the Solubility ([1]; Water, 50° C.) was roughly 0 mg/mL solvent. The XRPD ([1]; Water, 50° C. (cell printed at this row, probably merged downwards)) was “Form C”, the Solubility ([1]; acetone/n-heptane 1/1 (v/v), organic solvent or mixture, thermodynamic from solid, Acetone/n-hep = 1/1 (v/v), 25 ° C., read-out: Solubility) was 18000 µg/mL (≈ 55.8 mM) and the Solubility ([1]; acetone/n-heptane 1/2 (v/v), organic solvent or mixture, thermodynamic from solid, Acetone/n-hep = 1/2 (v/v), 25 ° C., read-out: Solubility) was 10000 µg/mL (≈ 31 mM). The Solubility ([1]; acetone/n-heptane 1/3 (v/v), organic solvent or mixture, thermodynamic from solid, Acetone/n-hep = 1/3 (v/v), 25 ° C., read-out: Solubility) was 5000 µg/mL (≈ 15.5 mM), the Solubility in words ([1]; in acetone, THF, 2-MeTHF, and MEK) was “high solubility” and the Solubility in words ([1]; in water, n-heptane, and MCH) was “poor solubility”. The XRPD ([1]; mixture solvents, 25 ° C. (printed at Acetone/MCH = 1/1, probably merged for all rows)) was “Form C”, the Solubility ([1]; n-PrOH, 25° C.) was 21 mg/mL solvent and the Solubility ([1]; n-PrOH, 50° C.) was 48 mg/mL solvent. For the same compound, the Solubility ([1]; organic solvent or mixture, thermodynamic from solid, 2-MeTHF/MCH = 1/1 (v/v), 25 ° C., read-out: Solubility) was 18000 µg/mL (≈ 55.8 mM), the Solubility ([1]; organic solvent or mixture, thermodynamic from solid, 2-MeTHF/MCH = 1/2 (v/v), 25 ° C., read-out: Solubility) was 6000 µg/mL (≈ 18.6 mM) and the Solubility ([1]; organic solvent or mixture, thermodynamic from solid, 2-MeTHF/MCH = 1/3 (v/v), 25 ° C., read-out: Solubility) was roughly 4000 µg/mL (≈ 12.4 mM). The Solubility ([1]; organic solvent or mixture, thermodynamic from solid, Acetone/MCH = 1/1 (v/v), 25 ° C., read-out: Solubility) was 30000 µg/mL (≈ 93.1 mM), the Solubility ([1]; organic solvent or mixture, thermodynamic from solid, Acetone/MCH = 1/2 (v/v), 25 ° C., read-out: Solubility) was 15000 µg/mL (≈ 46.5 mM) and the Solubility ([1]; organic solvent or mixture, thermodynamic from solid, MEK/MCH = 1/1 (v/v), 25 ° C., read-out: Solubility) was 20000 µg/mL (≈ 62 mM). The Solubility ([1]; organic solvent or mixture, thermodynamic from solid, MEK/MCH = 1/2 (v/v), 25 ° C., read-out: Solubility) was 9000 µg/mL (≈ 27.9 mM), the Bulk stability ([2]; 25° C./92% RH open, 40° C./75% RH open, 60° C. tight container, 1 week) was “physically and chemically stable” and the “Bulk (XRPD)” value [2, 3] was “Form C”. For the same compound, the Color [2, 3] was “No color change”, the “Purity, Bulk (HPLC)” value [2, 3] was 99.2% and the “Bulk (XRPD)” value [2, 4] was “Form C”. For the same compound, the Color [2, 4] was “No color change”, the “Purity, Bulk (HPLC)” value [2, 4] was 99.1% and the “Bulk (XRPD)” value [2, 5] was “Form C”. For the same compound, the Color [2, 5] was “No color change”, the “Purity, Bulk (HPLC)” value [2, 5] was 99.2% and the Initial purity ([2]; before stress) was 99.2%.
